According to patent US20170305857A1, “N-ACYLPIPERIDINE ETHER TROPOMYOSIN-RELATED KINASE INHIBITORS” (Pfizer Limited, priority 2014, published 2017):

Target: T1, recombinant His-tagged cytoplasmic domains of TRKA receptor (NTRK1, PV3144, aa 441-796) (Homo sapiens, UniProt P04629)
T1 construct: aa 441-796; His; purchased Invitrogen PV3144
Experiment: Isolated TRK enzyme assay (HTRF KinEASE-TK, PV3144 TrkA enzyme assay)
Format: biochemical
Settings: 4 nM enzyme, 40 uM ATP, 35 min, arithmetic mean where more than one reading
Experimental: Isolated TRK Enzyme assays use the HTRF KinEASE-TK kit (Cisbio Cat #62TK0PEJ) with recombinant His-tagged cytoplasmic domains of TRKA receptor sourced from Invitrogen (see table below). This activity-assay measures the phosphorylation of tyrosine residues within a substrate from the HTRF kit which has been validated by Cisbio for a variety of tyrosine kinases including the TRK receptors.
0.5 mM stock solutions of test compounds are prepared and serially diluted in 100% DMSO. […] Greiner low volume black plates containing 0.2 ul of serially diluted compound, standard and HPE/ZPE are created using the Bravo nanolitre dispenser.
1× enzyme buffer is prepared from 5× Enzymatic Buffer from the Cisbio KinEASE TK kit using MilliQ water. The buffer is then supplemented with 10 mM MgCl and 2 mM DTT (both from Sigma).
Following this preactivation step, 5 ul/well of enzyme+ATP mix is added using a Multidrop Micro to the assay plate, spotted with 0.2 ul 100% DMSO compound. This is left for 20 mins at room temperature before adding 5 ul of 2 uM TK-substrate-Biotin (from the Cisbio kit) diluted in 1× enzyme buffer (1 uM FAC) using the Multidrop Micro. The reaction is incubated at room temperature for the optimized assay reaction time (see table).
After the Detection Reagent addition, plates are covered and incubated at room temperature for 60 minutes. […] Test compound data are expressed as percentage inhibition defined by HPE and ZPE values for each plate. Percentage inhibition in the presence of test compound is plotted against compound concentration on a log scale to determine an IC50 from the resultant sigmoid curve.
Where more than one reading was taken, the arithmetic mean is presented.

T1 sequence (P04629 441-796): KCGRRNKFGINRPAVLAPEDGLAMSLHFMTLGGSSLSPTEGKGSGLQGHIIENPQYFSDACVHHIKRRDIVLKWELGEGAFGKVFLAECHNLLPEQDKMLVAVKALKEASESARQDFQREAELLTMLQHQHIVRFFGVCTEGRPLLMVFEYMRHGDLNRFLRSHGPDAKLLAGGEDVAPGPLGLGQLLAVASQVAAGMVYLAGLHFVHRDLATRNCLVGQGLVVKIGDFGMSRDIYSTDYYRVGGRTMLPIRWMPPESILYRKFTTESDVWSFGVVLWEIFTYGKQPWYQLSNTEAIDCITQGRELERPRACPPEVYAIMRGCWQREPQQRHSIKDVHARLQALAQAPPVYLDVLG

Structure (SMILES)	IC50 [nM]
NC(=O)c1cc(-c2cscn2)ccc1OC1CCN(C(=O)Cc2ccc(OC(F)(F)F)cc2)CC1 [Example 101, 5-(1,3-thiazol-4-yl)-2-[(1-{[4-(trifluoromethoxy)phenyl]acetyl}piperidin-4-yl)oxy]benzamide]	9.4
Cn1cc(-c2ccc(OC3CCN(C(=O)Cc4ccc(OC(F)(F)F)cn4)CC3)c(C(N)=O)c2)cn1 [Example 10, 5-(1-methyl-1H-pyrazol-4-yl)-2-[(1-{[5-(trifluoromethoxy)pyridin-2-yl]acetyl}piperidin-4-yl)oxy]benzamide]	9.9
NC(=O)c1cc(-c2cnn(C[C@@H](O)CO)c2)ccc1OC1CCN(C(=O)Cc2ccc(OC(F)(F)F)cc2)CC1 [Example 122]	4.4
Cc1nc(-c2cnc(OC3CCN(C(=O)Cc4ccc(OC(F)(F)F)cc4)CC3)c(C(N)=O)c2)c[nH]1 [Example 139, 5-(2-methyl-1H-imidazol-4-yl)-2-[(1-{[4-(trifluoromethoxy)phenyl]acetyl}piperidin-4-yl)oxy]pyridine-3-carboxamide]	10.7
NC(=O)c1cc(-c2cnn(CCO)c2)cnc1OC1CCN(C(=O)Cc2ccc(OC(F)(F)F)cc2)CC1 [Example 89, 5-[1-(2-hydroxyethyl)-1H-pyrazol-4-yl]-2-[(1-{[4-(trifluoromethoxy)phenyl]acetyl}piperidin-4-yl)oxy]pyridine-3-carboxamide]	5.4
NC(=O)c1cc(-c2cnn(CC3(O)COC3)c2)ccc1OC1CCN(C(=O)Cc2ccc(OC(F)(F)F)cc2)CC1 [Example 129, 5-{1-[(3-hydroxyoxetan-3-yl)methyl]-1H-pyrazol-4-yl}-2-[(1-{[4-(trifluoromethoxy)phenyl]acetyl}piperidin-4-yl)oxy]benzamide]	6.9
CS(=O)(=O)Cn1cc(-c2cnc(O[C@H]3CCN(C(=O)Cc4ccc(OC(F)(F)F)c(F)c4)C[C@@H]3F)c(C(N)=O)c2)cn1 [Example 26, 2-{[(3S,4S)-3-fluoro-1-{[3-fluoro-4-(trifluoromethoxy)phenyl]acetyl}piperidin-4-yl]oxy}-5-{1-[(methylsulfonyl)methyl]-1H-pyrazol-4-yl}pyridine-3-carboxamide]	8.9
NC(=O)c1cc(-c2nccs2)ccc1OC1CCN(C(=O)Cc2ccc(OC(F)(F)F)cc2)CC1 [Example 100, 5-(1,3-thiazol-2-yl)-2-[(1-{[4-(trifluoromethoxy)phenyl]acetyl}piperidin-4-yl)oxy]benzamide]	8.5
Cc1cc(OC2CCN(C(=O)Cc3ccc(OC(F)(F)F)cc3)CC2)c(C(N)=O)cc1-c1cn(C)cn1 [Example 170, 4-methyl-5-(1-methyl-1H-imidazol-4-yl)-2-[(1-{[4-(trifluoromethoxy)phenyl]acetyl}piperidin-4-yl)oxy]benzamide]	17.6
Cn1cnc(-c2ccc(OC3CCN(C(=O)Cc4ccc(OC(C)(F)F)cn4)CC3)c(C(N)=O)c2)c1 [Example 168, 2-[(1-{[5-(1,1-difluoroethoxy)pyridin-2-yl]acetyl}piperidin-4-yl)oxy]-5-(1-methyl-1H-imidazol-4-yl)benzamide]	17.3
NC(=O)c1cc(-c2ccc3c(c2)CNS3(=O)=O)ccc1OC1CCN(C(=O)Cc2ccc(OC(F)(F)F)cc2)CC1 [Example 63, 5-(1,1-dioxido-2,3-dihydro-1,2-benzothiazol-5-yl)-2-[(1-{[4-(trifluoromethoxy)phenyl]acetyl}piperidin-4-yl)oxy]benzamide]	6.7
Cc1nn(C[C@H](O)CO)c(C)c1-c1ccc(OC2CCN(C(=O)Cc3ccc(OC(F)(F)F)cc3)CC2)c(C(N)=O)c1 [Example 124]	7.4
NC(=O)c1cc(-n2cc(CO)cn2)cnc1O[C@@H]1CCN(C(=O)Cc2ccc(OC(F)(F)F)cc2)C[C@@H]1F [Example 160, 2-{[(3S,4R)-3-fluoro-1-{[4-(trifluoromethoxy)phenyl]acetyl}piperidin-4-yl]oxy}-5-[4-(hydroxymethyl)-1H-pyrazol-1-yl]pyridine-3-carboxamide]	8.46
NC(=O)c1cc(-c2c[nH]c(C3(O)COC3)n2)ccc1OC1CCN(C(=O)Cc2ccc(OC(F)(F)F)cc2)CC1 [Example 56, 5-[2-(3-hydroxyoxetan-3-yl)-1H-imidazol-5-yl]-2-[(1-{[4-(trifluoromethoxy)phenyl]acetyl}piperidin-4-yl)oxy]benzamide]	5.1
CS(=O)(=O)Cn1cc(-c2cnc(O[C@H]3CCN(C(=O)Cc4ccc(OC5CC5)cc4)C[C@@H]3F)c(C(N)=O)c2)cn1 [Example 30, 2-{[(3S,4S)-1-{[4-(cyclopropyloxy)phenyl]acetyl}-3-fluoropiperidin-4-yl]oxy}-5-{1-[(methylsulfonyl)methyl]-1H-pyrazol-4-yl}pyridine-3-carboxamide]	4.8
Cc1cn(-c2cnc(O[C@@H]3CCN(C(=O)Cc4ccc(OC(F)(F)F)cc4)C[C@@H]3F)c(C(N)=O)c2)cn1 [Example 162, 2-(((3S,4R)-3-fluoro-1-(2-(4-(trifluoromethoxy)phenyl)acetyl)piperidin-4-yl)oxy)-5-(4-methyl-1H-imidazol-1-yl)nicotinamide]	12.3
NC(=O)c1cc(-c2cnn(C[C@H](O)CO)c2)ccc1OC1CCN(C(=O)Cc2ccc(OC(F)(F)F)cc2)CC1 [Example 119, 5-{1-[(2S)-2,3-dihydroxypropyl]-1H-pyrazol-4-yl}-2-[(1-{[4-(trifluoromethoxy)phenyl]acetyl}piperidin-4-yl)oxy]benzamide]	8
NC(=O)c1cc(-c2cnn(C3CS(=O)(=O)C3)c2)cnc1O[C@H]1CCN(C(=O)Cc2ccc(OC3CC3)cn2)C[C@H]1F (racemic) [Example 39, 1:1 Cis-racemic 2-{[1-{[5-(cyclopropyloxy)pyridin-2-yl]acetyl}-3-fluoropiperidin-4-yl]oxy}-5-[1-(1,1-dioxidothietan-3-yl)-1H-pyrazol-4-yl]pyridine-3-carboxamide]	7
Cn1cc(-c2ccc(OC3CCN(C(=O)Cc4ccc(OC(F)(F)F)c(Cl)c4)CC3)c(C(N)=O)c2)cn1 [Example 110, 2-[(1-{[3-chloro-4-(trifluoromethoxy)phenyl]acetyl}piperidin-4-yl)oxy]-5-(1-methyl-1H-pyrazol-4-yl)benzamide]	110

These reach a lower IC50. Values come first.

IC50 [nM]	Structure (SMILES)
2.8	C[C@H](N)c1ccc(-c2ccc(OC3CCN(C(=O)Cc4ccc(OC(F)(F)F)cc4)CC3)c(C(N)=O)c2)cc1 [Example 66, 4'-[(1S)-1-aminoethyl]-4-[(1-{[4-(trifluoromethoxy)phenyl]acetyl}piperidin-4-yl)oxy]biphenyl-3-carboxamide]
2.6	C[C@@H](O)Cn1cc(-c2ccc(OC3CCN(C(=O)Cc4ccc(OC(F)(F)F)cc4)CC3)c(C(N)=O)c2)cn1 [Example 133]
2.4	NC(=O)c1cc(-c2cnn(C3CCS(=O)(=O)C3)c2)ccc1OC1CCN(C(=O)Cc2ccc(OC(F)(F)F)cc2)CC1 (racemic) [Example 14, Racemic 5-[1-(1,1-dioxidotetrahydrothiophen-3-yl)-1H-pyrazol-4-yl]-2-[(1-{[4-(trifluoromethoxy)phenyl]acetyl}piperidin-4-yl)oxy]benzamide]
2.1	Cn1cnc(-c2cnc(O[C@H]3CCN(C(=O)Cc4ccc(OC5CC5)cc4)C[C@@H]3F)c(C(N)=O)c2)c1 [Example 27, 2-{[(3S,4S)-1-{[4-(cyclopropyloxy)phenyl]acetyl}-3-fluoropiperidin-4-yl]oxy}-5-(1-methyl-1H-imidazol-4-yl)pyridine-3-carboxamide]
1.6	Cc1nc(-c2ccc(O[C@H]3CCN(C(=O)Cc4ccc(OC(F)(F)F)cc4)C[C@H]3F)c(C(N)=O)c2)c[nH]1 [Example 77, 2-{[(3R,4S)-3-fluoro-1-{[4-(trifluoromethoxy)phenyl]acetyl}pipertdin-4-yl]oxy}-5-(2-methyl-1H-imidazol-4-yl)benzamide]
1.6	NC(=O)c1cc(-c2cn[nH]c2)cnc1O[C@@H]1CCN(C(=O)Cc2ccc(OC(F)(F)F)cc2)C[C@@H]1F [Example 70, 2-{[(3S,4R)-3-fluoro-1-{[4-(trifluoromethoxy)phenyl]acetyl}piperidin-4-yl]oxy}-5-(1H-pyrazol-4-yl)pyridine-3-carboxamide]
1.5	Cn1cnc(-c2ccc(O[C@H]3CCN(C(=O)Cc4ccc(OC(F)(F)F)cc4)C[C@@H]3F)c(C(N)=O)c2)c1 (single isomer, unassigned) [Example 8]
1.2	Cn1cnc(-c2ccc(O[C@@H]3CCN(C(=O)Cc4ccc(OC(F)(F)F)cc4)C[C@H]3F)c(C(N)=O)c2)c1 [Example 53, 2-(((3R,4R)-3-fluoro-1-(2-(4-(trifluoromethoxy)phenyl)acetyl)piperidin-4-yl)oxy)-5-(1-methyl-1H-imidazol-4-yl)benzamide]
1.2	NC(=O)c1cc(-c2cnn(C3CS(=O)(=O)C3)c2)cnc1O[C@H]1CCN(C(=O)Cc2ccc(OC(F)(F)F)cc2)C[C@H]1F [Example 22, 5-[1-(1,1-dioxidothietan-3-yl)-1H-pyrazol-4-yl]-2-{[(3R,4S)-3-fluoro-1-{[4-(trifluoromethoxy)phenyl]acetyl}piperidin-4-yl]oxy}pyridine-3-carboxamide]
